According to the supplement of paper PMC10307832:

Assays:
Assay in all cases: relative viability (nuclei count vs DMSO), 5 days (fraction); higher = more cells survive
[1] = compound: CC(=O)O[C@@]12CO[C@@H]1C[C@H](O)[C@@]1(C)C(=O)[C@H](O)C3=C(C)[C@@H](OC(=O)[C@H](O)[C@@H](NC(=O)OC(C)(C)C)c4ccccc4)C[C@@](O)([C@@H](OC(=O)c4ccccc4)[C@H]21)C3(C)C [Docetaxel]
Procedure, shortened: (§1)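 A plate was accepted only when its control CV was below 25% and the cells had doubled at least once. Viability is defined from nuclear counts as treated wells divided by vehicle wells, with the median taken across plates. That median covers lung cancer cell lines grown in 1536-well plates, dosed by pinning at five √10-spaced library-drug concentrations, and counted in MetaXpress from 4× Hoechst images after 5 days.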

[2] = compound: COc1cc2nccc(Oc3ccc(NC(=O)Nc4cc(C)on4)c(Cl)c3)c2cc1OC [Tivozanib]
Procedure, shortened: as §1

[3] = compound: Cc1cnc(-c2cnc(NCCNc3ccc(C#N)cn3)nc2-c2ccc(Cl)cc2Cl)[nH]1
Procedure, shortened: as §1

[4] = compound: Cc1sc2c(c1C)C(c1ccc(Cl)cc1)=N[C@@H](CC(=O)OC(C)(C)C)c1nnc(C)n1-2 [JQ1]
Procedure, shortened: as §1

[5] = compound: Nc1ccn([C@@H]2O[C@H](CO)[C@@H](O)[C@@H]2O)c(=O)n1 [Cytarabine]
Procedure, shortened: as §1

[6] = compound: O=C(O)CCCCC(CCSCc1ccccc1)SCc1ccccc1 [CPI-613]
Procedure, shortened: as §1

[7] = compound: O=c1[nH]c2ccccc2n1C1CCN(CCCC(c2ccc(F)cc2)c2ccc(F)cc2)CC1 [Pimozide]
Procedure, shortened: as §1

Cell Line | relative viability ([1]; 0.0002 µM) | relative viability ([1]; 0.000632 µM) | relative viability ([1]; 0.002 µM) | relative viability ([1]; 0.006325 µM) | relative viability ([1]; 0.02 µM) | relative viability ([2]; 0.005 µM) | relative viability ([2]; 0.01581 µM) | relative viability ([2]; 0.05 µM) | relative viability ([2]; 0.1581 µM) | relative viability ([2]; 0.5 µM) | relative viability ([3]; 0.08 µM) | relative viability ([3]; 0.253 µM) | relative viability ([3]; 0.8 µM) | relative viability ([3]; 2.53 µM) | relative viability ([4]; 0.04 µM) | relative viability ([4]; 0.1265 µM) | relative viability ([4]; 0.4 µM) | relative viability ([4]; 1.265 µM) | relative viability ([4]; 4 µM) | relative viability ([5]; 0.005 µM) | relative viability ([5]; 0.01581 µM) | relative viability ([5]; 0.05 µM) | relative viability ([5]; 0.1581 µM) | relative viability ([5]; 0.5 µM) | relative viability ([6]; 5 µM) | relative viability ([6]; 15.81 µM) | relative viability ([6]; 50 µM) | relative viability ([6]; 158.11 µM) | relative viability ([6]; 500 µM) | relative viability ([7]; 0.08 µM) | relative viability ([7]; 0.253 µM) | relative viability ([7]; 0.8 µM) | relative viability ([7]; 2.53 µM) | relative viability ([7]; 8 µM)
NCI-H441 | 0.977 | 0.747 | 0.288 | 0.26 | 0.13 | 0.949 | 0.93 | 0.919 | 0.895 | 0.766 | 1.01 | 0.768 | 0.95 | 0.867 | 1.01 | 0.813 | 0.719 | 0.598 | 0.352 | 0.962 | 0.973 | 0.965 | 0.365 | 0.367 | 0.954 | 1.01 | 0.924 | 0.4 | 0.0254 | 1.12 | 0.9 | 0.804 | 0.883 | 0.776
EPLC-272H | 0.878 | 0.533 | 0.244 | 0.104 | 0.071 | 0.908 | 0.885 | 0.947 | 0.731 | 0.635 | 1.02 | 0.836 | 0.937 | 0.962 | 0.801 | 0.797 | 0.789 | 0.433 | 0.289 | 0.768 | 0.572 | 0.487 | 0.331 | 0.173 | 0.9 | 0.834 | 0.839 | 0.783 | 0.449 | 0.852 | 0.896 | 0.842 | 0.7 | 0.61
NCI-H1666 | 0.86 | 0.876 | 0.616 | 0.6 | 0.421 | 0.965 | 0.965 | 1.02 | 0.99 | 1.02 | 0.983 | 0.929 | 1.06 | 0.998 | 0.94 | 0.965 | 0.848 | 0.711 | 0.64 | 1 | 0.849 | 0.803 | 0.56 | 0.573 | 0.964 | 0.945 | 0.837 | 0.696 | 0.323 | 0.953 | 0.983 | 0.934 | 0.909 | 0.909
ABC-1 | 0.853 | 0.817 | 0.472 | 0.343 | 0.24 | 0.849 | 0.919 | 1 | 0.793 | 0.412 | 0.881 | 0.682 | 0.896 | 0.904 | 0.947 | 0.657 | 0.691 | 0.572 | 0.444 | 0.907 | 0.883 | 0.808 | 0.732 | 0.582 | 1.05 | 0.802 | 1.04 | 0.469 | 0.226 | 0.811 | 1.05 | 0.959 | 0.897 | 0.698
NCI-H838 | 0.937 | 0.867 | 0.393 | 0.197 | 0.175 | 0.957 | 0.969 | 1.01 | 0.736 | 0.979 | 0.999 | 0.93 | 1.05 | 1.16 | 0.961 | 0.59 | 0.792 | 0.436 | 0.343 | 0.97 | 0.964 | 0.743 | 0.423 | 0.293 | 0.948 | 0.864 | 0.883 | 0.649 | 0.0946 | 0.953 | 0.998 | 0.93 | 0.927 | 0.959
NCI-H1915 | 0.986 | 0.943 | 0.326 | 0.262 | 0.16 | 0.959 | 0.971 | 0.984 | 0.896 | 0.75 | 1.02 | – | 0.973 | 0.919 | 0.975 | 0.702 | 0.904 | 0.427 | 0.269 | 0.916 | 0.916 | 0.854 | 0.609 | 0.503 | 1.01 | 0.996 | 0.97 | 0.949 | 0.0528 | 0.972 | 0.919 | 0.631 | 0.928 | 0.925
NCI-H1395 | 0.933 | 0.861 | 0.676 | 0.39 | 0.268 | 0.738 | 1.04 | 1 | 0.736 | 0.677 | 1.08 | 0.84 | 0.818 | 0.837 | 0.849 | 0.734 | 0.702 | 0.516 | 0.547 | 0.826 | 0.775 | 0.567 | 0.447 | 0.354 | 0.993 | 0.806 | 0.897 | 0.84 | 0.8 | 0.918 | 0.84 | 0.822 | 0.878 | 0.918
COR-L23 | 0.963 | 0.904 | 0.514 | 0.184 | 0.141 | 1.01 | 0.989 | 1.06 | 1.09 | 0.841 | 1.08 | 0.897 | 1.04 | 0.934 | 0.965 | 0.848 | 1.02 | 0.54 | 0.549 | 1.06 | 0.874 | 0.656 | 0.234 | 0.172 | 1 | 0.946 | 1.03 | 0.415 | 0.0149 | 1.08 | 1.03 | 0.949 | 0.981 | 0.912
PC-14 | 0.941 | 0.742 | 0.209 | 0.081 | 0.0432 | 0.924 | 1.05 | 1.06 | 1.03 | 0.927 | 1.07 | 0.861 | 1.04 | 0.867 | 0.971 | 0.684 | 0.652 | 0.333 | 0.22 | 0.881 | 0.922 | 0.565 | 0.174 | 0.127 | 0.956 | 0.9 | 0.941 | 0.685 | 0.595 | – | 0.965 | 0.851 | 0.915 | 0.987
CAL-12T | 0.791 | 0.418 | 0.302 | 0.21 | 0.178 | 0.857 | 0.941 | 0.994 | 0.698 | 0.959 | 1.03 | 0.933 | 0.899 | 0.927 | 0.867 | 0.818 | 0.798 | 0.321 | 0.293 | 0.983 | 0.909 | 0.789 | 0.397 | 0.255 | 0.877 | 0.829 | 0.822 | 0.423 | 0.235 | 0.951 | 0.936 | 0.909 | 0.867 | 0.832
A-427 | 0.931 | 0.952 | 0.439 | 0.281 | 0.171 | 0.98 | 1 | 1.03 | 0.902 | 0.833 | 1.04 | 0.852 | 0.959 | 0.948 | 0.902 | 0.879 | 0.91 | 0.653 | 0.504 | 0.823 | 0.449 | 0.329 | 0.214 | 0.204 | 1 | 0.898 | 0.939 | 0.772 | 0.157 | 0.952 | 0.967 | 0.94 | 0.882 | 0.845
NCI-H1793 | 1.01 | 0.852 | 0.351 | 0.285 | 0.186 | 0.84 | 0.787 | 0.952 | – | 0.977 | 1.07 | 0.879 | 0.876 | 1.02 | 0.802 | 0.785 | 0.674 | 0.778 | 0.78 | 0.958 | 0.884 | 0.818 | 0.691 | 0.521 | 0.854 | 0.705 | 0.994 | 0.494 | 0.0301 | 0.746 | 0.846 | 0.675 | 0.947 | 0.711
NCI-H2170 | 1.01 | 0.999 | 0.828 | 0.271 | 0.201 | 0.928 | 0.923 | 0.956 | – | 1.02 | 1.1 | 0.655 | 0.989 | 0.958 | 1 | 0.778 | 0.908 | 0.711 | 0.503 | 0.822 | 0.741 | 0.688 | 0.463 | 0.402 | 0.939 | 0.903 | 0.998 | 0.802 | 0.301 | 1.05 | 0.94 | 0.956 | 0.945 | 0.947
EKVX | 0.97 | 0.874 | 0.462 | 0.262 | 0.176 | 0.908 | 0.989 | 1.09 | 0.939 | 0.971 | 1 | 0.824 | 0.975 | 0.835 | 0.997 | 0.781 | 0.939 | 0.827 | 0.769 | 1.02 | 0.913 | 0.694 | 0.364 | 0.362 | 0.935 | 0.959 | 0.932 | 0.628 | 0.935 | – | 0.906 | 0.923 | 0.978 | 0.984
Calu-6 | 1.01 | 0.892 | 0.28 | 0.157 | 0.109 | 0.955 | 1.02 | 1.04 | 1.08 | 0.943 | 1 | 0.951 | 0.969 | 0.908 | 0.951 | 0.804 | 0.933 | 0.593 | 0.425 | 0.93 | 0.865 | 0.714 | 0.462 | 0.313 | 0.978 | 0.999 | 0.913 | 0.722 | 0.545 | 1.05 | 1.01 | 0.974 | 0.991 | 0.897
LU99A | 0.997 | 0.83 | 0.478 | 0.395 | 0.203 | 0.987 | 0.849 | 0.942 | 0.751 | 0.952 | 1.06 | 0.939 | 1.04 | 0.963 | 0.847 | 0.667 | 0.82 | 0.542 | 0.32 | 1.06 | 0.825 | 0.905 | 0.886 | 0.929 | 0.896 | 0.886 | 0.832 | 0.756 | 0.279 | 0.907 | 0.938 | 0.858 | 0.893 | 1
